Test results as given in patent publication US6436992B1, “Use of fumaric acid derivatives” (Fumapharm AG, priority 1997, dated 2002).

Test system: haemagglutinin formation in mice
Assay: Inhibition of haemagglutinin formation in mice immunised with sheep erythrocytes, after peroral administration
Format: in vivo
[1] = mice, 150 mg/kg bodyweight p.o.
[2] = mice, 300 mg/kg bodyweight p.o.
[3] = mice, 600 mg/kg bodyweight p.o.

## COC(=O)/C=C/C(=O)[O-].[Ca+] [Methyl hydrogen fumarate-Ca salt]
[1]
  Inhibition of haemagglutinin formation in %: 13%
  Suppression index: 0.87
[2]
  Inhibition of haemagglutinin formation in %: 20%
  Suppression index: 0.80
mice, 300 mg/kg p.o.
  effect on haemagglutinin formation (in words): slight reduction
[3]
  Inhibition of haemagglutinin formation in %: 38%
  Suppression index: 0.62
mice, 150, 300 and 600 mg/kg p.o.
  suppressive effect on haemagglutinin formation (in words, over dose range): dosage-dependent suppressive effect
mice, p.o.
  immuno-suppressive effect (conclusion): significant immuno-suppressive effect
